The target in test [1] is Histamine H2 receptor (Homo sapiens, UniProt P25021). Nature of the test: GPCRScan assay: inhibition of H2. On the set-up: radioligand conc. used [nm] 0.02 – 0.05, parental cells Stable HEK.
Test [2] concerns the target Alpha-2B adrenergic receptor (Homo sapiens, UniProt P18089). Nature of the test: GPCRScan assay: inhibition of Alpha2B. On the set-up: radioligand conc. used [nm] 1.5 – 2.0, parental cells HEKT.
For test [3], the target named is 5-hydroxytryptamine receptor 2A (Homo sapiens, UniProt P28223). Nature of the test: GPCRScan assay: inhibition of 5-HT2A. Set-up: radioligand conc. used [nm] 1.2 – 2.4, parental cells HEKT.
Test [4] deals with Mitogen-activated protein kinase kinase kinase 3 (Homo sapiens) (UniProt Q99759). To be noted: Compound concentration 1000.0 nM.
Test [5] deals with RAC-beta serine/threonine-protein kinase (Homo sapiens) (UniProt P31751). To be noted: Compound concentration 1000.0 nM.
Test [6] concerns the target Serine/threonine-protein kinase/endoribonuclease IRE1 (Homo sapiens) (UniProt O75460). The following applies: Compound concentration 1000.0 nM.
Test [7] concerns the target Cyclin-dependent kinase 16 (Homo sapiens) (UniProt Q00536). The following applies: Compound concentration 1000.0 nM.
Test [8] deals with Serine/threonine-protein kinase B-raf (Homo sapiens) (UniProt P15056). To be noted: Compound concentration 1000.0 nM.
For test [9], the target named is Serine/threonine-protein kinase 24 (Homo sapiens) (UniProt Q9Y6E0). The following applies: Compound concentration 1000.0 nM.
In test [10] the target is Tyrosine-protein kinase receptor Tie-1 (Homo sapiens) (UniProt P35590). The following applies: Compound concentration 1000.0 nM.
Test [11] addresses Fibroblast growth factor receptor 2 (Homo sapiens) (UniProt P21802). To be noted: Compound concentration 1000.0 nM.
For test [12], the target named is Ephrin type-B receptor 1 (Homo sapiens) (UniProt P54762). The following applies: Compound concentration 1000.0 nM.
Test [13] deals with Serine/threonine-protein kinase TAO1 (Homo sapiens) (UniProt Q7L7X3). To be noted: Compound concentration 1000.0 nM.
The target of test [14] is Mitogen-activated protein kinase 8 (Homo sapiens) (UniProt P45983). To be noted: Compound concentration 1000.0 nM.
The target in test [15] is Macrophage colony-stimulating factor 1 receptor (Homo sapiens) (UniProt P07333). To be noted: Compound concentration 1000.0 nM.
Sequence of Macrophage colony-stimulating factor 1 receptor (Homo sapiens) (P07333 whole entry): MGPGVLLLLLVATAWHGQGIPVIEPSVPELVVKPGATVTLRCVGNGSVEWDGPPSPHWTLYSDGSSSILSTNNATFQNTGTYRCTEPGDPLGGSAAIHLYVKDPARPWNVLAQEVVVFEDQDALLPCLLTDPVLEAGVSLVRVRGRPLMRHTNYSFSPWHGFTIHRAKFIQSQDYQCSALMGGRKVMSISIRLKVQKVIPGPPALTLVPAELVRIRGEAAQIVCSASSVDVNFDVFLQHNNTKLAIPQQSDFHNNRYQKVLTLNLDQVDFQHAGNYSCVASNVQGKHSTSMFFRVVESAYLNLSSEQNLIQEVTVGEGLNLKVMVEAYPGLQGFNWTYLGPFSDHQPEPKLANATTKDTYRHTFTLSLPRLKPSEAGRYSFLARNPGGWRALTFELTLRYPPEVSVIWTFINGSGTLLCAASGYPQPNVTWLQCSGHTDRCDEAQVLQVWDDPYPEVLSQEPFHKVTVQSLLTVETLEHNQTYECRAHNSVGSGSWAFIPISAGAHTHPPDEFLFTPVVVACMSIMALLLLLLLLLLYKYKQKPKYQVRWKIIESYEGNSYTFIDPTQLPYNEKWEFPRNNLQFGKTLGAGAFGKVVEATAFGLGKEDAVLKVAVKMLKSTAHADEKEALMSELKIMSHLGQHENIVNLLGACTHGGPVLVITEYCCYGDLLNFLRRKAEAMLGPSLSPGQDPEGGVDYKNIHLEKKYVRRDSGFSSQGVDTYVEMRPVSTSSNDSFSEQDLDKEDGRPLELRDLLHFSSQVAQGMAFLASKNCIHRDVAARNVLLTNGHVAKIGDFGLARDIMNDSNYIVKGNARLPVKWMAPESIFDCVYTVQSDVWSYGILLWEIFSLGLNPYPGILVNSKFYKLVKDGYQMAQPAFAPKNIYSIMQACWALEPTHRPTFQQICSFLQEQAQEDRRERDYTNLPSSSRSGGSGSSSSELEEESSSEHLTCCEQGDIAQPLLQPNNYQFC
Test [16] concerns the target cAMP-dependent protein kinase catalytic subunit PRKX (Homo sapiens) (UniProt P51817). To be noted: Compound concentration 1000.0 nM.
Test [17] concerns the target Megakaryocyte-associated tyrosine-protein kinase (Homo sapiens) (UniProt P42679). The following applies: Compound concentration 1000.0 nM.
For test [18], the target named is Rhodopsin kinase GRK7 (Homo sapiens) (UniProt Q8WTQ7). The following applies: Compound concentration 1000.0 nM.
For test [19], the target named is Myosin-IIIa (Homo sapiens) (UniProt Q8NEV4). The following applies: Compound concentration 1000.0 nM.
Test [20] has as its system Tyrosine-protein kinase ABL1 (Homo sapiens), P00519 [T315I]. The following applies: Compound concentration 1000.0 nM.
Test [21] deals with Tyrosine-protein kinase ABL1 (Homo sapiens), P00519 [Q252H]. To be noted: Compound concentration 1000.0 nM.
Test [22] addresses Serine/threonine-protein kinase 16 (Homo sapiens) (UniProt O75716). To be noted: Compound concentration 1000.0 nM.
The target of test [23] is Homeodomain-interacting protein kinase 2 (Homo sapiens) (UniProt Q9H2X6). The following applies: Compound concentration 1000.0 nM.
For test [24], the target named is Serine/threonine-protein kinase ULK3 (Homo sapiens) (UniProt Q6PHR2). The following applies: Compound concentration 1000.0 nM.
Test [25] concerns the target Ribosomal protein S6 kinase alpha-5 (Homo sapiens) (UniProt O75582). To be noted: Compound concentration 1000.0 nM.
For test [26], the species on record is Rattus norvegicus. To be noted: Compound concentration 10.0 uM.
In test [27] the target is Mitogen-activated protein kinase 13 (Homo sapiens) (UniProt O15264). The following applies: Compound concentration 1000.0 nM.
For test [28], the target named is Cyclin-dependent kinase 7 (Homo sapiens) (UniProt P50613). To be noted: Compound concentration 1000.0 nM.
Test [29] has as its target Serine/threonine-protein kinase PLK2 (Homo sapiens) (UniProt Q9NYY3). To be noted: Compound concentration 1000.0 nM.
The target of test [30] is Tyrosine-protein kinase Tec (Homo sapiens) (UniProt P42680). To be noted: Compound concentration 1000.0 nM.
For test [31], the target named is Mitogen-activated protein kinase 1 (Homo sapiens) (UniProt P28482). To be noted: Compound concentration 1000.0 nM.
The target of test [32] is Receptor-interacting serine/threonine-protein kinase 1 (Homo sapiens) (UniProt Q13546). To be noted: Compound concentration 1000.0 nM.
The target of test [33] is TGF-beta receptor type-1 (Homo sapiens) (UniProt P36897). The following applies: Compound concentration 1000.0 nM.
Test [34] concerns the target AP2-associated protein kinase 1 (Homo sapiens) (UniProt Q2M2I8). The following applies: Compound concentration 1000.0 nM.
Test [35] concerns Proto-oncogene tyrosine-protein kinase receptor Ret (Homo sapiens), P07949 [V804L]. To be noted: Compound concentration 1000.0 nM.
Sequence of Proto-oncogene tyrosine-protein kinase receptor Ret (Homo sapiens), P07949 [V804L] (P07949 whole entry V804L): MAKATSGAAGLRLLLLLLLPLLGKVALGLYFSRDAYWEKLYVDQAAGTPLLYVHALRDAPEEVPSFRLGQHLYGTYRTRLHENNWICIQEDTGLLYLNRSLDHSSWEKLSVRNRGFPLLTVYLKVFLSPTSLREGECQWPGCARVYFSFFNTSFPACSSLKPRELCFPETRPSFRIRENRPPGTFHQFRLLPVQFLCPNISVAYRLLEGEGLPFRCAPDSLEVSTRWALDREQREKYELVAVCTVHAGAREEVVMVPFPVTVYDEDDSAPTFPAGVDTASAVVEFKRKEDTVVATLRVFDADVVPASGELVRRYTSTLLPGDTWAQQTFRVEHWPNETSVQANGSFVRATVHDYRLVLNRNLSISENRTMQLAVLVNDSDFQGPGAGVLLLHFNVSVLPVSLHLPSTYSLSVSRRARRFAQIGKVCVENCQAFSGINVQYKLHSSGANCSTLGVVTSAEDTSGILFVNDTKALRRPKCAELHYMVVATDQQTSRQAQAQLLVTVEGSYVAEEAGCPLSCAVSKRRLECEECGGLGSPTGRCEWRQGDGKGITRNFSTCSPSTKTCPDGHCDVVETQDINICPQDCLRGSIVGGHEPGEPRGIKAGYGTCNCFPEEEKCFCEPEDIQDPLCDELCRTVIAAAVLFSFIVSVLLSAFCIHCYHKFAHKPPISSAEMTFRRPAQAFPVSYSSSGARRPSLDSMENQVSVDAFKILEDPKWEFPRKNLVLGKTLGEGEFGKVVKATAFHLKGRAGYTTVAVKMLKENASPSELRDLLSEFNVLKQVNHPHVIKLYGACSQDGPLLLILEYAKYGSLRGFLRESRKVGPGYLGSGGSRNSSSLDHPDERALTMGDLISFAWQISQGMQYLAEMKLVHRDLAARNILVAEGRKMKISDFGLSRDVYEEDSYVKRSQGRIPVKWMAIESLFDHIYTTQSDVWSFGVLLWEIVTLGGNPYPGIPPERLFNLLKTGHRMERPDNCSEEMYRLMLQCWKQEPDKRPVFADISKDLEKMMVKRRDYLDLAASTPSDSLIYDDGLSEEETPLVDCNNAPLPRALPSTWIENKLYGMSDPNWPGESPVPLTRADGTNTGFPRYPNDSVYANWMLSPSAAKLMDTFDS
In test [36] the target is Maternal embryonic leucine zipper kinase (Homo sapiens) (UniProt Q14680). To be noted: Compound concentration 1000.0 nM.
Test [37] addresses Phosphatidylinositol 4-kinase beta (Homo sapiens) (UniProt Q9UBF8). To be noted: Compound concentration 1000.0 nM.
Test [38] has as its target Serine/threonine-protein kinase STK11 (Homo sapiens) (UniProt Q15831). To be noted: Compound concentration 1000.0 nM.
Test [39] relates to Mast/stem cell growth factor receptor Kit (Homo sapiens), P10721 [V559D,T670I]. The following applies: Compound concentration 1000.0 nM.
Sequence of Mast/stem cell growth factor receptor Kit (Homo sapiens), P10721 [V559D,T670I] (P10721 whole entry V559D/T670I, canonical isoform): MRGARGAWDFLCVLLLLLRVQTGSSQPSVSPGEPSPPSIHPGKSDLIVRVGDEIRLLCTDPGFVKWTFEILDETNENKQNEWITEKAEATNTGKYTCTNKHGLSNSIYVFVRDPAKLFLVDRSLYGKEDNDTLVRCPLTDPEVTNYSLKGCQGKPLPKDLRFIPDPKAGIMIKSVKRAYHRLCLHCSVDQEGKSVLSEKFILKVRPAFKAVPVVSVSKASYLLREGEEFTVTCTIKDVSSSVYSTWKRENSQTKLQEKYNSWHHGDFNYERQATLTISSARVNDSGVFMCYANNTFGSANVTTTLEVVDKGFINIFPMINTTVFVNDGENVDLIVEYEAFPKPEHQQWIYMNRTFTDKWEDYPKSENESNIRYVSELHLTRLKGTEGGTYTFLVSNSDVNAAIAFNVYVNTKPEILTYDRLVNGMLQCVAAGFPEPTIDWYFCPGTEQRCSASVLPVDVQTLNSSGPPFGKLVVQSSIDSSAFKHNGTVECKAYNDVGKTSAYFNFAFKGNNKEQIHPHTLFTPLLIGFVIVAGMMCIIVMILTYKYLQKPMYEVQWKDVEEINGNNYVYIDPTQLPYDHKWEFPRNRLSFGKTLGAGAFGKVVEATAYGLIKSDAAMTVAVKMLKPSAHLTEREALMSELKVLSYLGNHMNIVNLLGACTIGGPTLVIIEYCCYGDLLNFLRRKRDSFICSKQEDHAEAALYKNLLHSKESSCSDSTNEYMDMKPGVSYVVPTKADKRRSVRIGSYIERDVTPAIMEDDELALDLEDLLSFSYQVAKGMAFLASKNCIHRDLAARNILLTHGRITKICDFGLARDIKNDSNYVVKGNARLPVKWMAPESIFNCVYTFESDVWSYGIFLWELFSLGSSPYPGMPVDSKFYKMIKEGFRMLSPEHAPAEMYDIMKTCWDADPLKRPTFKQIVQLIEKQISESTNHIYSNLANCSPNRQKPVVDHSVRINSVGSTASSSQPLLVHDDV
Test [40] has as its target Phosphatidylinositol 4,5-bisphosphate 3-kinase catalytic subunit beta isoform (Homo sapiens) (UniProt P42338). To be noted: Compound concentration 1000.0 nM.
Test [41] deals with Cyclin-dependent kinase 8 (Homo sapiens) (UniProt P49336). The following applies: Compound concentration 1000.0 nM.
Test [42] concerns the target Serine/threonine-protein kinase WNK3 (Homo sapiens) (UniProt Q9BYP7). To be noted: Compound concentration 1000.0 nM.
In test [43] the test system is ALK tyrosine kinase receptor (Homo sapiens), Q9UM73 [L1196M]. The following applies: Compound concentration 1000.0 nM.
Test [44] has as its target Interleukin-1 receptor-associated kinase 1 (Homo sapiens) (UniProt P51617). The following applies: Compound concentration 1000.0 nM.
Test [45] has as its system Phosphatidylinositol 4,5-bisphosphate 3-kinase catalytic subunit alpha isoform (Homo sapiens), P42336 [H1047Y]. The following applies: Compound concentration 1000.0 nM.
Test [46] has as its target Mitogen-activated protein kinase kinase kinase 6 (Homo sapiens) (UniProt O95382). The following applies: Compound concentration 1000.0 nM.

As usually defined, the Ki is the equilibrium dissociation constant of an inhibitor or competing ligand from its target. As a reminder, the inhibition is the change of the read-out against control, counted positive when it falls.

Sequence of Interleukin-1 receptor-associated kinase 1 (Homo sapiens) (P51617 whole entry, looked up, canonical isoform): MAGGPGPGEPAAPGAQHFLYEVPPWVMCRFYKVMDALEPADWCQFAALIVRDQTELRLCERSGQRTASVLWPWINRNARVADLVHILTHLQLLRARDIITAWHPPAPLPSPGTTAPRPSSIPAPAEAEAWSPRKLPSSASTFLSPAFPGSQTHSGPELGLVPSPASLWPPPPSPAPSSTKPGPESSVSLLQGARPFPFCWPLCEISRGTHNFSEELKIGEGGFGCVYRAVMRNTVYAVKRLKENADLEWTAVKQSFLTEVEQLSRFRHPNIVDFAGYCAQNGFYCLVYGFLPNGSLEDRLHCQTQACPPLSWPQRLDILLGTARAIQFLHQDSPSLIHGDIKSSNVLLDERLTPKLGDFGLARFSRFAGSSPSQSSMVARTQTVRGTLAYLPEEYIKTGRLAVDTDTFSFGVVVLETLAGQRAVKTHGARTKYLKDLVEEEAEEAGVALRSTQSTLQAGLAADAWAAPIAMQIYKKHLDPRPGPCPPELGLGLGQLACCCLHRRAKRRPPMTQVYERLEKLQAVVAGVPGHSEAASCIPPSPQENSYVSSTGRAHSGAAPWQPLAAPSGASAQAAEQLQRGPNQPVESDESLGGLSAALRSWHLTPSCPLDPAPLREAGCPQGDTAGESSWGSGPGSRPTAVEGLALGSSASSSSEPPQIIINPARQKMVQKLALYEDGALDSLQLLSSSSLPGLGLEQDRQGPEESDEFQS
Sequence of Serine/threonine-protein kinase 16 (Homo sapiens) (O75716 whole entry): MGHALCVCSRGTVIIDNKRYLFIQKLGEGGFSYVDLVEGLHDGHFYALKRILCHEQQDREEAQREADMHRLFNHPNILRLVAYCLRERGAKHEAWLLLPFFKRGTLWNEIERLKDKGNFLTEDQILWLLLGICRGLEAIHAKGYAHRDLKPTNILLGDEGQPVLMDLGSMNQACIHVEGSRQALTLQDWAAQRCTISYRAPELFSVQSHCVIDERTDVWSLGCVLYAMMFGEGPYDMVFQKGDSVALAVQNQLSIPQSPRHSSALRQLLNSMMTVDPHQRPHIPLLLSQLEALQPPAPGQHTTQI
Sequence of Alpha-2B adrenergic receptor (P18089 whole entry): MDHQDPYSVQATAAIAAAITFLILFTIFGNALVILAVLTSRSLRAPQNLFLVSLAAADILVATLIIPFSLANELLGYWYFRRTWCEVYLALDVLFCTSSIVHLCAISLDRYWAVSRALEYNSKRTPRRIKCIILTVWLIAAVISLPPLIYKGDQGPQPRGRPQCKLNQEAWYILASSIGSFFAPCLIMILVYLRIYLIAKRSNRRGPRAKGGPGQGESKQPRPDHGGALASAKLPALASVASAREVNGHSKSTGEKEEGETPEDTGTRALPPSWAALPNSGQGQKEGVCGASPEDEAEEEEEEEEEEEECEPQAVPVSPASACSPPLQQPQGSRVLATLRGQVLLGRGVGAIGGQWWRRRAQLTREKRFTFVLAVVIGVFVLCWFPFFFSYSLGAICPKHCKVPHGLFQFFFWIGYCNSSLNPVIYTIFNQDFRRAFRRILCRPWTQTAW
Sequence of Histamine H2 receptor (P25021 whole entry): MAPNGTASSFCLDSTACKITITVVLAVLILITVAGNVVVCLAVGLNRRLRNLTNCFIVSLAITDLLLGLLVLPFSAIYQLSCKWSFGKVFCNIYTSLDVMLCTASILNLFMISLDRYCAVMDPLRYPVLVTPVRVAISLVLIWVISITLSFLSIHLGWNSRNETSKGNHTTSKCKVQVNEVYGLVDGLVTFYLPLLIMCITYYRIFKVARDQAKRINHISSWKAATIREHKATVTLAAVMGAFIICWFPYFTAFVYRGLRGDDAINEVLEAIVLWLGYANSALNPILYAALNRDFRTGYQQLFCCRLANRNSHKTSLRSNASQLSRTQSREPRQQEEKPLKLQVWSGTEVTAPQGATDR

As to `CC(C)(C)OC(=O)N1CCCC1CNC1CCC(c2cc(F)ccc2F)(S(=O)(=O)c2ccc(Cl)cc2)CC1` (stereo unspecified) [GSI-NC], the Ki in [1] turned out to be 3790 nM; in [2], 879 nM; in test [3], 478 nM.
On to `O=S(=O)(NC1CCC(c2cc(F)ccc2F)(S(=O)(=O)c2ccc(Cl)cc2)CC1)C(F)(F)F` (stereo unspecified) [MRK-560], for which the residual activity in test [4] was 100%; in test [5], 99%; in test [6], 100%; in test [7], 68%; in test [8] it was 93%; in [9], 99%. Besides, the residual activity is 100% in [10]; 84% in [11]; 100% in test [12]; 100% in test [13]; 78% in test [14]; 100% in test [15]. The residual activity in test [16] was 100%; in test [17], 100%; in test [18], 100%; in test [19], 91%; in test [20], 85%; in test [21], 84%. Also, the residual activity in test [22] is 97%; in test [23], 81%; in test [24] it was 82%; in test [25], 94%; in test [27] it was 100%; in test [28], 100%. Besides, the residual activity in [29] was 100%; in [30], 100%; in [31] it was 100%; in test [32] it was 100%; in test [33] it was 100%; in test [34], 96%. In addition, the residual activity in test [35] is 84%; in test [36], 69%; in [37], 82%; in [38] it was 100%; in [39], 100%; in test [40], 100%. For the same molecule, the residual activity was 100% in [41]; 100% in test [42]; 94% in [43]; 93% in test [44]; 100% in [45]; 82% in test [46]. The inhibition in test [26] was 37.2%.
